In patent EP0934932A1 (MEIJI SEIKA KABUSHIKI KAISHA, priority 1996, dated 1998) one finds Ki data, which are given here for 15 compounds.

The structures appear in SMILES notation.

What is called Ki is the dissociation constant of the complex between target and ligand, obtained from inhibition or displacement.

The assay has as its target T1, human dopamine D4 receptor (Homo sapiens, UniProt P21917).
T1 construct: expressed in transfected cells
T1 sequence (P21917 1-419): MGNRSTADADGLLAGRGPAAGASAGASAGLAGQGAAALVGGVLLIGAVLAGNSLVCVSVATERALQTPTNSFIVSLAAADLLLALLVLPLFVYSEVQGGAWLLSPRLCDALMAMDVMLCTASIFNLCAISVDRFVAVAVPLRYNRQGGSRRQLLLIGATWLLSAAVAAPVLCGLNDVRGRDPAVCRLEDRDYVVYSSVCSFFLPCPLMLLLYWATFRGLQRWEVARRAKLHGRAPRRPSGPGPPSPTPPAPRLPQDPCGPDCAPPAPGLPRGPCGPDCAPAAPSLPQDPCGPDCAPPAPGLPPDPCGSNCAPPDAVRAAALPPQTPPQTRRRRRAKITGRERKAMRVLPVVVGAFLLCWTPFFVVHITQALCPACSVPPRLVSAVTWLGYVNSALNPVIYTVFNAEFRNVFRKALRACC
The experiment in a line: Binding affinity for dopamine D4 receptor ([3H]-spiperone displacement, membrane fraction). The conditions noted are these: cloned human dopamine D4 receptor; [3H]-spiperone 0.2nM; 37°C for 30 min; Ki from IC50 by the equation of Cheng and Prusoff. The procedure: Cells that express cloned human dopamine D4 receptor were harvested in an assay buffer (50mM Tris-HCl, pH7.4, containg 120 mM NaCl, 5 mM KCl, 1mM MgCl2, and 1 mM CaCl2) and homogenized in a potter type homogenizer. The membrane fraction was centrifuged at 39000 g for 20 min at 4°C. The pellet was suspended in 1 ml of the assay buffer per cells from dish having a diameter of 10 cm and was again homogenated. The aliquots (100µl) was added to the buffer containing [^3H]-spiperone of a final concentration of 0.2nM and a test compound to the final assay volume of 300µl, which was then incubated at 37°C for 30 min. The incubation was stopped by rapid filtration on a GF/B filter. Washing with 5 ml of ice-cold 50 mM Tris-HCl (pH 7.4) was then carried out. The radioactivity was measured with a packered liquid scintillation counter. The amount of nonspecific binding was determined in the presence of 1 µM spiperone, and the amount of the specific binding was then determined by subtracting the amount of the nonspecific binding from the total binding. For each compound, IC50 was determined by a regression analysis using a nonlinear least square method. The Ki value was then calculated by the equation of Cheng and Prusoff.
Regarding `O=c1ccc2ccccc2n1CCCN1CCC(Oc2ccc(Cl)cc2)CC1` [Example 20, 1-[3-[4-(4-Chlorophenoxy)-1-piperidinyl]-propyl]-2(1H)-quinolinone], the inhibition constant (Ki) was determined as 2 nM.

In turn, `O=C1CSc2ccccc2N1CCCC1CCN(Cc2ccc(F)cc2)CC1` [Example 32] had an inhibition constant Ki of 7.6 nM.

Regarding `O=c1ccc2ccccc2n1CCCN1CCN(CC2CCCCC2)CC1` [Example 1, 1-[3-(4-Cyclohexanemethyl-1-piperazinyl)-propyl]-2(1H)-quinolinone], the Ki stood at 7.6 nM.

On to `O=c1ccc2ccccc2n1CCCC1CCN(Cc2ccc(F)c(F)c2)CC1` [Example 24, 1-[3-[1-(3,4-Difluorobenzyl)-4-piperidinyl]-propyl]-2 (1H)-quinolinone], for which the Ki is 6 nM.

Turning to `O=C1CCc2ccccc2N1CCN1CCN(CC2CCCCC2)CC1` [Example 10 (A), 1-[2-(4-Cyclohexanemethyl-1-piperazinyl)-ethyl]-3,4-dihydro-2(1H)-quinolinone], the Ki was 34 nM. This Ki lies about 5.7-fold higher than the previous one.

In turn, `O=C1CCc2ccccc2N1CCCC1CCN(Cc2ccc(Cl)cc2)CC1` [Example 41, 1-[3-[1-(4-Chlorobenzyl)-4-piperidinyl]-propyl]-3,4-dihydro-2 (1H)-quinolinone] came in with a Ki of 1.1 nM.

`O=c1ccc2ccccc2n1CCCN1CCN(Cc2ccc(F)c(F)c2)CC1` [Example 3, 1-[3-[4-(3,4-Difluorobenzyl)-1-piperazinyl]-propyl]-2(1H)-quinolinone] returned a Ki of 18 nM.

In turn, `Cc1cccc(CN2CCC(CCCN3C(=O)CCc4ccccc43)CC2)c1` [Example 54, 1-[3-[1-(3-Methylbenzyl)-4-piperidinyl]-propyl]-3,4-dihydro-2(1H)-quinolinone] had an inhibitory constant (Ki) of 7.5 nM.

`Cc1ccc(CN2CCC(CCCN3C(=O)CCc4ccccc43)CC2)cc1` [Example 55, 1-[3-[1-(4-Methylbenzyl)-4-piperidinyl]-propyl]-3,4-dihydro-2 (1H)-quinolinone] had a Ki of 1 nM.

In turn, `O=C1CCc2ccccc2N1CCCC1CCN(Cc2ccc(F)cc2F)CC1` [Example 39, 1-[3-[1-(2,4-Difluorobenzyl)-4-piperidinyl]propyl]-3,4-dihydro-2(1H)-quinolinone] displayed a Ki of 5.9 nM. Compared with the last compound, the Ki is about 5.9-fold higher.

`O=C1CSc2ccccc2N1CCCC1CCN(Cc2ccc(Cl)cc2)CC1` [Example 33] had a Ki of 1 nM.

On to `Cc1ccccc1CN1CCC(CCCN2C(=O)CCc3ccccc32)CC1` [Example 44, 1-[3-[1-(2-Methylbenzyl)-4-piperidinyl]-propyl]-3,4-dihydro-2(1H)-quinolinone], for which the Ki turned out to be 2.8 nM.

The compound `O=C1CCc2ccccc2N1CCCC1CCN(Cc2ccc(F)c(F)c2)CC1` [Example 30, 1-[3-[1-(3,4-Difuorobenzyl)-4-piperidinyl]-propyl]-3,4-dihydro-2 (1H)-quinolinone] gave a Ki of 5.7 nM.

`O=C1COc2ccccc2N1CCCC1CCN(Cc2ccc(F)cc2)CC1` [Example 27, 1-[3-[1-(4-Fluorobenzyl)-4-piperidinyl]-propyl]-4H-benzo[1,4]oxazin-3-one] displayed a Ki of 29 nM.

Consider `O=C1COc2ccccc2N1CCCC1CCN(Cc2ccc(Cl)cc2)CC1` [Example 29, 1-[3-[1-(4-Chlorobenzyl)-4-piperidinyl]-propyl]-4H-benzo[1,4]oxazin-3-one], for which the Ki stood at 5.1 nM.
